Laboratory results published in patent publication US8980932B2, “Cancer targeting using carbonic anhydrase isoform IX inhibitors” (Stichting Maastricht Radiation Oncology “Maastro-Clinic”, priority 2010, dated 2015).
Like-named read-outs stand apart in the source and are kept apart here.

What was measured:
[1] = molecular target: hCA IX (Homo sapiens (Human), UniProt Q16790); assay: CA-catalyzed CO2 hydration stopped-flow inhibition assay, hCA IX
Protocol: The uncatalyzed rates were determined in the same manner and subtracted from the total observed rates. Stock solutions of inhibitor (1 mM) were prepared in distilled-deionized water with 10-20% (v/v) DMSO (which is not inhibitory at these concentrations) and dilutions up to 0.1 nM were done thereafter with distilled-deionized water. Inhibitor and enzyme solutions were preincubated together for 15 min at room temperature prior to assay, in order to allow for the formation of CA IX-inhibitor complex. The inhibition constants were obtained by non-linear last-squares methods using PRISM 3 and represent the mean from at least three different determinations.

[2] = test system: cervical (HeLa) carcinoma cell line; assay: Extracellular acidification (delta pH of medium) in HeLa cells; assay type: cell-based, human
Protocol: (§1) The experiment was set up as previously described (Dubois et al, 2007). A colorectal (HT-29) (FIG. 5a) and a cervical (HeLa) (FIG. 5b) carcinoma cell line were tested in normoxic (ambient oxygen concentration) and hypoxic (0.2% oxygen) conditions. HT-29 cells are known to be constitutive hypoxia inducible CA IX (CA IX expression under normoxia and increased CA IX expression upon hypoxia) expressing cells. Therefore, compounds were added after 1 h of hypoxic exposure (to ensure active CA IX) and incubation was done for another 23 h (total of 24 h hypoxia). HeLa cells are hypoxia inducible (at lower density) CA IX expressing cells. Therefore, HeLa were first incubated for 24 h hypoxia to ensure CA IX expression in the first place (time point assessed in time series experiments). Afterwards, compounds were added and cells were incubated for another 24 h.
(§2) Experiments were performed in triplicate for each condition. The described conditions were done both for HT-29 and HeLa under normoxic and hypoxic conditions.
(§3) Following conditions were assessed: • Blank 1 mM or 0.1 mM (no addition of compound, only DMSO/PBS) • DH307 1 mM or 0.1 mM • DH310 1 mM or 0.1 mM • DH338 1 mM or 0.1 mM • DH348 1 mM or 0.1 mM • S=AEBS (4-(2-aminoethylbenzenesulfonamide); Sigma) 1 mM or 0.1 mM (known to reduce extracellular pH as described by (Svastova et al, 2004))
(§4) Cells were seeded in 6 cm dishes (HT-29: 10e6; HeLa: 4×10^5: to compensate for cell size) in 5 ml of DMEM supplemented with 10% FCS. The day after, medium was replaced by 3.6 ml of freshly prepared DMEM/FCS 10%, from which the pH was measured=pH at incubation), after which dishes were placed in the hypoxic chamber (normoxic dishes remained at ambient air in the incubator: 37° C., 95% humidity, 5% CO2). Compounds were added (1 h for HT-29 or 24 h for HeLa after start hypoxic exposure) to have a final concentration of 1 mM or 0.1 mM, by adding 400 μl to the dishes, starting from a 10 or 1 mM stock (DMSO final concentration 0.1%). Blanc controls received DMSO/PBS without compound. pH of the medium was measured after 24 h (HT-29) or 48 h (HeLa) inside the hypoxic chamber after calibration of the electrode to reduced oxygen concentrations. Delta pH (pH at end hypoxic exposure−pH of replacement medium before incubation) were calculated and shown in the graph of FIGS. 5a and 5b.

[3] = test system: colorectal (HT-29) carcinoma cell line; assay: Extracellular acidification (delta pH of medium) in HT-29 cells; assay type: cell-based; settings: for reduction of extracellular acidification: HT-29, hypoxia (0.2% oxygen)
Protocol: as §1, §2, §3, §4

[4] = read-out: KI hCA IX, stopped-flow CO2 hydration, pH 7.5, 15 min preincubation

| melting point | Compound | Ki [1, 4] | reduction of extracellular acidification ([3]; 1 mM) | further results |
| --- | --- | --- | --- | --- |
| 163 to 165 °C | NS(=O)(=O)c1ccc(NC(=O)Cn2ccnc2[N+](=O)[O-])cc1 [Compound 4a, 2-(2-nitro-imidazol-1-yl)-N-(4-sulfamoylphenyl)acetamide] | 70 nM | – | – |
| 195 to 197 °C | NS(=O)(=O)c1cccc(NC(=O)Cn2ccnc2[N+](=O)[O-])c1 [Compound 4b, 2-(2-nitro-imidazol-1-yl)-N-(3-sulfamoylphenyl)acetamide] | – | – | – |
| 139 to 141 °C | NS(=O)(=O)c1ccc(CCNC(=O)Cn2ccnc2[N+](=O)[O-])cc1 [Compound 4d, 2-(2-nitro-imidazol-1-yl)-N-[2-(4-sulfamoylphenyl)ethyl]acetamide] | – | – | Ki [1]: 7.3 nM |
| – | Cc1ncc([N+](=O)[O-])n1CCNC(=S)Nc1ccc(S(N)(=O)=O)cc1 [Compound 6a, N-(4-sulfamoylphenyl)-N-((2-aminoethyl)-2-methyl-5-nitroimidazolyl)thiourea] | 7.3 nM | – | – |
| – | Cc1ncc([N+](=O)[O-])n1CCNC(=S)NCc1ccc(S(N)(=O)=O)cc1 [Compound 6c, N-(4-sulfamoylbenzyl)-N-((2-aminoethyl)-2-methyl-5-nitroimidazolyl)thiourea] | 8.3 nM | – | reduction of extracellular acidification ([2]; hypoxia (0.2% oxygen), 0.1 mM): strong reduction; reduction of extracellular acidification ([2]; hypoxia (0.2% oxygen), 1 mM): made the medium alkaline |
| – | Cc1ncc([N+](=O)[O-])n1CCNC(=S)NCCc1ccc(S(N)(=O)=O)cc1 [Compound 6d, N-(4-sulfamoylphenylethyl)-N-((2-aminoethyl)-2-methyl-5-nitroimidazolyl)thiourea] | 7.8 nM | – | – |
| 122 °C | Cc1ncc([N+](=O)[O-])n1CCNS(N)(=O)=O [Compound 7, N-[2-(2-methyl-5-nitro-imidazol-1-yl)ethyl]sulfamide] | – | best results | reduction of extracellular acidification ([3]; 0.1 mM): additional reduction compared with the other compounds; reduction of extracellular acidification ([2]; hypoxia, concentration not specified): best results |
| – | NCCc1ccc(S(N)(=O)=O)cc1 [S, 4-(2-aminoethylbenzenesulfonamide), reference compound] | – | effectively reduced the extracellular acidification | reduction of extracellular acidification ([3]; 0.1 mM): less; effect on extracellular acidification upon normoxic exposure ([3]; HT-29, normoxia): No effect; reduction of extracellular acidification ([2]; hypoxia (0.2% oxygen), 0.1 mM): less; reduction of extracellular acidification ([2]; hypoxia (0.2% oxygen), 1 mM): effectively reduced the extracellular acidification; effect on extracellular acidification upon normoxic exposure ([2]; normoxia): No effect |
| – | N-[2-(2-methyl-5-nitro-imidazol-1-yl)ethyl]sulfamate [Compound 9] | – | best results | – |
